Values quoted from earlier work as cited in patent US8691277B2, “Long acting sustained-release formulation containing dopamine receptor agonist and the preparation method thereof” (Shandong Luye Pharmaceutical Co., Ltd., priority 2004, dated 2014).

Assays:
[1] = in vivo
[2] = in vivo, po

For CCCN[C@H]1CCc2nc(N)sc2C1 [pramipexole], the half-life [1] is given as “only a couple of hours”.

For CCCN(CCc1cccs1)[C@H]1CCc2c(O)cccc2C1 [rotigotine], the bioavailability [2] is listed as 1-5% and the half-life [1] is listed as “only a couple of hours”.
